Experimental data reported in patent US20230085307A1, “PYRIDAZINONE COMPOUND AND HERBICIDE” (NISSAN CHEMICAL CORPORATION, priority 2019, published 2023).

Columns and labels:
oval-leafed pondweed = assay: Test Example 1: herbicidal activity, application before weed generation under submerged conditions (Table 16, symbol C); assay type: in vivo, oval-leafed pondweed (Monochoria vaginalis); conditions: amount of applied herbicide 320 g/ha
Method in brief: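 Submerged Wagner pots (alluvial soil, 4 cm water) sown with weed seeds and planted with 2.5-leaf rice seedlings; emulsifiable concentrate diluted in water applied to water surface on sowing day. Held in greenhouse at 25-30 °C; injury scored 0-5 by herbicidal rate after three weeks.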

green foxtail = assay: Test Example 4: herbicidal effect by soil treatment (Table 19, symbol G); assay type: in vivo, green foxtail (Setaria viridis); conditions: amount of applied herbicide 320 g/ha
Method in brief: (§1)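 Soil-surface application: an emulsion agent diluted with water to the predetermined dose is sprayed uniformly over seeds lying under roughly 1.5 cm of sterilized diluvial soil. Boxes stay in a greenhouse at 25° C. to 30° C. Three weeks later, each species is graded on previously defined criteria.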

late watergrass = assay: Test Example 2: herbicidal activity, application during weed generation under submerged conditions (Table 17, symbol A); assay type: in vivo, late watergrass (Echinochloa oryzicola); conditions: AAH 320 g/ha; application during weed generation, submerged conditions
Method in brief: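 Effect on each weed is rated three weeks post-treatment, using the same scoring criteria as the preceding test. Plants grow from mixed-sown seed in flooded alluvial soil (4 cm water) at 25° C. to 30° C., and are treated at one to two leaves with diluted emulsion dropped onto the water.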

velvetleaf [1] = assay: Test Example 4: herbicidal effect by soil treatment (Table 19, symbol M); assay type: in vivo, velvetleaf (Abutilon theophrasti); conditions: amount of applied herbicide 320 g/ha
Method in brief: as §1

windgrass [2] = assay: Test Example 5: herbicidal effect by foliage application, plastic box (Table 20, symbol L); assay type: in vivo, windgrass (Apera spica-venti); conditions: foliage application; for L: windgrass, herbicidal effect (criteria 0-5): AAH 320 g/ha, evaluated three weeks after application
Method in brief: (§2)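 Sow seeds spot-wise in sterilized diluvial soil; cover with ~1.5 cm soil. Grow 14 days in greenhouse, 25° C. to 30° C. Spray foliage with emulsion diluted to predetermined amount. Rate effect after 3 weeks.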

barnyard grass = assay: Test Example 3: herbicidal effect by foliage application, Wagner pot (Table 18, symbol H); assay type: in vivo, barnyard grass (Echinochloa crus-galli); conditions: amount of applied herbicide 320 g/ha
Method in brief: (§3)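 Plants were sown in alluvial soil held under 0.1–0.5 cm standing water and grown 14 days in a greenhouse at 25–30 °C. An emulsifiable formulation, water-diluted to the set dose, was then sprayed onto the foliage, and effects were scored three weeks later using previously defined criteria.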

southern crabgrass = assay: Test Example 5: herbicidal effect by foliage application, plastic box (Table 20, symbol F); assay type: in vivo, southern crabgrass (Digitaria ciliaris); conditions: foliage application; for F: southern crabgrass, herbicidal effect (criteria 0-5): AAH 320 g/ha, evaluated three weeks after application
Method in brief: as §2

windgrass [3] = assay: Test Example 4: herbicidal effect by soil treatment (Table 19, symbol L); assay type: in vivo, windgrass (Apera spica-venti); conditions: amount of applied herbicide 320 g/ha
Method in brief: as §1

velvetleaf [4] = assay: Test Example 5: herbicidal effect by foliage application, plastic box (Table 20, symbol M); assay type: in vivo, velvetleaf (Abutilon theophrasti); conditions: foliage application; for M: velvetleaf, herbicidal effect (criteria 0-5): AAH 320 g/ha, evaluated three weeks after application
Method in brief: as §2

lambsquarters [5] = assay: Test Example 5: herbicidal effect by foliage application, plastic box (Table 20, symbol O); assay type: in vivo, lambsquarters (Chenopodium album); conditions: foliage application; for O: lambsquarters, herbicidal effect (criteria 0-5): AAH 320 g/ha, evaluated three weeks after application
Method in brief: as §2

persian speedwell [6] = assay: Test Example 5: herbicidal effect by foliage application, plastic box (Table 20, symbol R); assay type: in vivo, Persian speedwell (Veronica persica); conditions: foliage application; for R: persian speedwell, herbicidal effect (criteria 0-5): AAH 320 g/ha, evaluated three weeks after application
Method in brief: as §2

chickweed = assay: Test Example 4: herbicidal effect by soil treatment (Table 19, symbol P); assay type: in vivo, common chickweed (Stellaria media); conditions: amount of applied herbicide 320 g/ha
Method in brief: as §1

lambsquarters [7] = assay: Test Example 4: herbicidal effect by soil treatment (Table 19, symbol O); assay type: in vivo, lambsquarters (Chenopodium album); conditions: amount of applied herbicide 320 g/ha
Method in brief: as §1

rice flat sedge = assay: Test Example 3: herbicidal effect by foliage application, Wagner pot (Table 18, symbol E); assay type: in vivo, rice flat sedge (Cyperus iria); conditions: amount of applied herbicide 320 g/ha
Method in brief: as §3

Italian ryegrass = assay: Test Example 5: herbicidal effect by foliage application, plastic box (Table 20, symbol K); assay type: in vivo, Italian ryegrass (Lolium multiflorum); conditions: foliage application; for K: Italian ryegrass, herbicidal effect (criteria 0-5): AAH 320 g/ha, evaluated three weeks after application
Method in brief: as §2

persian speedwell [8] = assay: Test Example 4: herbicidal effect by soil treatment (Table 19, symbol R); assay type: in vivo, Persian speedwell (Veronica persica); conditions: amount of applied herbicide 320 g/ha
Method in brief: as §1

Chinese sprangletop = assay: Test Example 3: herbicidal effect by foliage application, Wagner pot (Table 18, symbol D); assay type: in vivo, chinese sprangletop (Leptochloa chinensis); conditions: amount of applied herbicide 320 g/ha
Method in brief: as §3

[9] = 320 g/ha, three weeks after application

| Structure (SMILES) | Herbicidal effect, C: oval-leafed pondweed (oval-leafed pondweed) | herbicidal effect, G: green foxtail (green foxtail) | herbicidal effect rating, A: late watergrass (late watergrass) | herbicidal effect, M: velvetleaf (velvetleaf [1]) | L: windgrass, herbicidal effect (criteria 0-5) (windgrass [2]) | herbicidal effect on H: barnyard grass (barnyard grass) | F: southern crabgrass, herbicidal effect (criteria 0-5) (southern crabgrass) | herbicidal effect, L: windgrass (windgrass [3]) | M: velvetleaf, herbicidal effect (criteria 0-5) (velvetleaf [4]) | O: lambsquarters, herbicidal effect (criteria 0-5) (lambsquarters [5]) | R: persian speedwell, herbicidal effect (criteria 0-5) (persian speedwell [6]) | herbicidal effect, P: chickweed (chickweed) | herbicidal effect, O: lambsquarters (lambsquarters [7]) | herbicidal effect on E: rice flat sedge (rice flat sedge) | K: Italian ryegrass, herbicidal effect (criteria 0-5) (Italian ryegrass) | herbicidal effect, R: persian speedwell (persian speedwell [8]) | herbicidal effect on D: Chinese sprangletop (Chinese sprangletop) | further results |
| --- | --- | --- | --- | --- | --- | --- | --- | --- | --- | --- | --- | --- | --- | --- | --- | --- | --- | --- |
| Cc1nn(C)c(=O)c(-c2c(-c3cnccc3C(F)(F)F)sc3ccc(F)cc23)c1O [2-387] | 0 (Herbicidal rate of 5% or less (almost no effect)) | 3 (Herbicidal rate of 40% or more and less than 70%) | 4 (Herbicidal rate of 70% or more and less than 90%) | 3 (Herbicidal rate of 40% or more and less than 70%) | 5 (Herbicidal rate of 90% or more (almost completely withered)) | 5 (Herbicidal rate of 90% or more (almost completely withered)) | 4 (Herbicidal rate of 70% or more and less than 90%) | 3 (Herbicidal rate of 40% or more and less than 70%) | 5 (Herbicidal rate of 90% or more (almost completely withered)) | 5 (Herbicidal rate of 90% or more (almost completely withered)) | 5 (Herbicidal rate of 90% or more (almost completely withered)) | 4 (Herbicidal rate of 70% or more and less than 90%) | 4 (Herbicidal rate of 70% or more and less than 90%) | 5 (Herbicidal rate of 90% or more (almost completely withered)) | 4 (Herbicidal rate of 70% or more and less than 90%) | 5 (Herbicidal rate of 90% or more (almost completely withered)) | 5 (Herbicidal rate of 90% or more (almost completely withered)) | – |
| CCCC(=O)Oc1c(C)nn(C)c(=O)c1-c1c(-c2ccc(Cl)s2)sc2ccc(F)cc12 [2-391] | 5 (Herbicidal rate of 90% or more (almost completely withered)) | 4 (Herbicidal rate of 70% or more and less than 90%) | 3 (Herbicidal rate of 40% or more and less than 70%) | 3 (Herbicidal rate of 40% or more and less than 70%) | 4 (Herbicidal rate of 70% or more and less than 90%) | 5 (Herbicidal rate of 90% or more (almost completely withered)) | 5 (Herbicidal rate of 90% or more (almost completely withered)) | 3 (Herbicidal rate of 40% or more and less than 70%) | 5 (Herbicidal rate of 90% or more (almost completely withered)) | 4 (Herbicidal rate of 70% or more and less than 90%) | 5 (Herbicidal rate of 90% or more (almost completely withered)) | 4 (Herbicidal rate of 70% or more and less than 90%) | 4 (Herbicidal rate of 70% or more and less than 90%) | 5 (Herbicidal rate of 90% or more (almost completely withered)) | 5 (Herbicidal rate of 90% or more (almost completely withered)) | 3 (Herbicidal rate of 40% or more and less than 70%) | 4 (Herbicidal rate of 70% or more and less than 90%) | – |
| Cc1nn(C)c(=O)c(-c2c(-c3ccc4c(c3)OC(F)(F)O4)sc3ccc(F)cc23)c1O [2-392] | 0 (Herbicidal rate of 5% or less (almost no effect)) | 1 (Herbicidal rate of 5% or more and less than 20%) | 2 (Herbicidal rate of 20% or more and less than 40%) | 1 (Herbicidal rate of 5% or more and less than 20%) | 0 (Herbicidal rate of 5% or less (almost no effect)) | 5 (Herbicidal rate of 90% or more (almost completely withered)) | 4 (Herbicidal rate of 70% or more and less than 90%) | 1 (Herbicidal rate of 5% or more and less than 20%) | 5 (Herbicidal rate of 90% or more (almost completely withered)) | 5 (Herbicidal rate of 90% or more (almost completely withered)) | 5 (Herbicidal rate of 90% or more (almost completely withered)) | 5 (Herbicidal rate of 90% or more (almost completely withered)) | 3 (Herbicidal rate of 40% or more and less than 70%) | 5 (Herbicidal rate of 90% or more (almost completely withered)) | 5 (Herbicidal rate of 90% or more (almost completely withered)) | 5 (Herbicidal rate of 90% or more (almost completely withered)) | 4 (Herbicidal rate of 70% or more and less than 90%) | – |
| CCCC(=O)Oc1c(CC)nn(C)c(=O)c1-c1c(-c2ccc(C(F)(F)F)cc2)sc2ccc(F)cc12 [2-411] | 0 (Herbicidal rate of 5% or less (almost no effect)) | 0 (Herbicidal rate of 5% or less (almost no effect)) | 3 (Herbicidal rate of 40% or more and less than 70%) | 0 (Herbicidal rate of 5% or less (almost no effect)) | – | 5 (Herbicidal rate of 90% or more (almost completely withered)) | – | 0 (Herbicidal rate of 5% or less (almost no effect)) | – | – | – | 1 (Herbicidal rate of 5% or more and less than 20%) | 0 (Herbicidal rate of 5% or less (almost no effect)) | 3 (Herbicidal rate of 40% or more and less than 70%) | – | 2 (Herbicidal rate of 20% or more and less than 40%) | 3 (Herbicidal rate of 40% or more and less than 70%) | L: windgrass, herbicidal effect grade (windgrass [2]; [9]): 0 (Herbicidal rate of 5% or less (almost no effect)); F: southern crabgrass, herbicidal effect grade (southern crabgrass; [9]): 3 (Herbicidal rate of 40% or more and less than 70%); M: velvetleaf, herbicidal effect grade (velvetleaf [4]; [9]): 1 (Herbicidal rate of 5% or more and less than 20%); O: lambsquarters, herbicidal effect grade (lambsquarters [5]; [9]): 4 (Herbicidal rate of 70% or more and less than 90%); R: persian speedwell, herbicidal effect grade (persian speedwell [6]; [9]): 5 (Herbicidal rate of 90% or more (almost completely withered)); K: Italian ryegrass, herbicidal effect grade (Italian ryegrass; [9]): 0 (Herbicidal rate of 5% or less (almost no effect)) |
